Measurements: ChEMBL document CHEMBL3046426, “Analytical and biological characterization of quinazoline semicarbazone derivatives” (Med Chem Res, 2010)

Tests used:
Candida albicans = assay: Antifungal activity against Candida albicans NCIM 0707 after 18 hr by disk diffusion method; assay type: functional; also: test concentration or dose not given here
Proteus vulgaris = assay: Antibacterial activity against Proteus vulgaris NCIM 2239 after 18 hr by disk diffusion method; assay type: functional; also: test concentration or dose not given here
Salmonella paratyphi = assay: Antibacterial activity against Salmonella enterica subsp. enterica serovar Paratyphi A NCIM […] after 18 hr by disk diffusion method; assay type: functional
Klebsiella aerogenes = assay: Antibacterial activity against Enterobacter aerogenesNCIM 2075 after 18 hr by disk diffusion method; assay type: functional, NCIM 2075; also: test concentration or dose not given here
Escherichia coli = assay: Antibacterial activity against Escherichia coli NCIM 2065 after 18 hr by disk diffusion method; assay type: functional; also: test concentration or dose not given here
Staphylococcus = assay: Antibacterial activity against Staphylococcus albus NCIM 2178 after 18 hr by disk diffusion method; assay type: functional; also: test concentration or dose not given here
Bacillus cereus = assay: Antibacterial activity against Bacillus cereus NCIM 2018 after 18 hr by disk diffusion method; assay type: functional; also: test concentration or dose not given here
Micrococcus luteus = assay: Antibacterial activity against Micrococcus luteus NCIM 2155 after 18 hr by disk diffusion method; assay type: functional; also: test concentration or dose not given here
Lederbergia lenta = assay: Antibacterial activity against Bacillus lentus NCIM 2018 after 18 hr by disk diffusion method; assay type: functional; also: test concentration or dose not given here
[1] = Solubility of the compound in dilute acids; assay type: physicochemical
[2] = Solubility of the compound in acetic acid; assay type: physicochemical
[3] = Solubility of the compound in ethyl acetate; assay type: physicochemical
[4] = Solubility of the compound in DMSO; assay type: physicochemical
[5] = Solubility of the compound in benzene; assay type: physicochemical
[6] = Solubility of the compound in ethanol; assay type: physicochemical
[7] = Solubility of the compound in DMF; assay type: physicochemical
[8] = Solubility of the compound in water; assay type: physicochemical
[9] = Solubility of the compound in chloroform; assay type: physicochemical

Row | Structure (SMILES) | diameter of the inhibition zone (DIZ) (Candida albicans) [mm] | diameter of the inhibition zone (DIZ) (Proteus vulgaris) [mm] | diameter of the inhibition zone (DIZ) (Salmonella paratyphi) [mm] | diameter of the inhibition zone (DIZ) (Klebsiella aerogenes) [mm] | diameter of the inhibition zone (DIZ) (Escherichia coli) [mm] | diameter of the inhibition zone (DIZ) (Staphylococcus) [mm] | diameter of the inhibition zone (DIZ) (Bacillus cereus) [mm] | diameter of the inhibition zone (DIZ) (Micrococcus luteus) [mm] | diameter of the inhibition zone (DIZ) (Lederbergia lenta) [mm] | solubility [1] | solubility [2] | solubility [3] | solubility [4] | solubility [5] | solubility [6] | solubility [7] | solubility [8] | solubility [9]
1 | COc1cc(/C=N/NC(=O)Nn2c(-c3ccccc3)nc3ccccc3c2=O)ccc1O | 21 | 16 | 15 | 16 | 19 | 13 | 14 | 15 | 18 | soluble | soluble | soluble | soluble | soluble | soluble | soluble | Insoluble | soluble
2 | O=C(N/N=C1/C(=O)Nc2ccccc21)Nn1c(-c2ccccc2)nc2ccccc2c1=O | 22 | 17 | 16 | 17 | 21 | 13 | 12 | 16 | 17 | soluble | soluble | soluble | soluble | soluble | soluble | soluble | Insoluble | soluble
3 | CC12CCC(C/C1=N/NC(=O)Nn1c(-c3ccccc3)nc3ccccc3c1=O)C2(C)C (centres undefined) | 20 | 17 | 15 | 16 | 18 | 12 | 14 | 14 | 17 | Insoluble | Insoluble | soluble | soluble | Insoluble | soluble | soluble | Insoluble | soluble
4 | O=C(NN=C(c1ccccc1)c1ccccc1)Nn1c(-c2ccccc2)nc2ccccc2c1=O | 25 | 16 | 16 | 15 | 21 | 10 | 15 | 12 | 17 | Insoluble | Insoluble | soluble | soluble | soluble | soluble | soluble | Insoluble | soluble
5 | CN(C)c1ccc(/C=N/NC(=O)Nn2c(-c3ccccc3)nc3ccccc3c2=O)cc1 | 21 | 18 | 15 | 17 | 19 | 16 | 17 | 16 | 18 | Insoluble | Insoluble | soluble | soluble | soluble | soluble | soluble | Insoluble | soluble
6 | O=C(O)c1cn(C2CC2)c2cc(N3CCNCC3)c(F)cc2c1=O [CIPROFLOXACIN] |  | 8 | 8 | 10 | 16 | 8 | 9 | 8 | 9 |  |  |  |  |  |  |  |  | 
7 | Clc1ccccc1C(c1ccccc1)(c1ccccc1)n1ccnc1 [CLOTRIMAZOLE] | 14 |  |  |  |  |  |  |  |  |  |  |  |  |  |  |  |  | 
